Values of other authors in US20100322880A1, “UVA FILTERS BASED ON ASCORBIC ACID DERIVATIVES” (Merck Patent GmbH, priority 2008, published 2010).

System: prolyl-4-hydroxylase
Conditions: for supporting the activity of the enzyme prolyl-4-hydroxylase: literature statement, no figures

SMILES	supporting the activity of the enzyme prolyl-4-hydroxylase	affinity to the enzyme (disubstituted compared with the monosubstituted compound)
CC(=O)Oc1ccccc1C(=O)OC[C@H](O)[C@H]1OC(=O)C(O)=C1O [O^6-(2-acetoxybenzoyl) L-ascorbate]	capable of supporting the activity	
CC(=O)Oc1ccccc1C(=O)OC[C@H](OC(=O)c1ccccc1OC(C)=O)[C@H]1OC(=O)C(O)=C1O [O^5O^6-bis(2-acetoxybenzoyl) L-ascorbate]	capable of supporting the activity	lower affinity
